Literature values as cited in patent US8697862B2, “Synthesis of galactoside inhibitors” (Galecto Biotech AB, priority 2008, dated 2014).

Tested on: galectins

O=C[C@H](O)[C@@H](O)[C@@H](O)[C@H](O)CO [D-galactose]
affinity, times lower than lactose (relative to lactose): 50-100 times

OC[C@H]1O[C@@H](O[C@H]2[C@H](O)[C@@H](O)C(O)O[C@@H]2CO)[C@H](O)[C@@H](O)[C@H]1O (some centres unmarked) [lactose]
Kd (all galectins): 500 to 1000 µM
